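Cultured in 96-well plates, cells were exposed to test compound for 48 hours across five concentrations. The concentration for 50% growth inhibition is given as GI50.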 Activity calls are given as the source filed them. No stated cut-off is given here; in the data, active = GI50 up to about 1.1 µM and inactive = higher. Some results are limits rather than exact numbers.

Test systems include HCC 2998; KM12; SN12C; UACC-62; OVCAR-5; M14; SK-MEL-2; SNB-19; CCRF-CEM; SK-MEL-5; MDA-N; ACHN; BT-549; 786-0; SF-295; TK-10; U-251; NCI-H23; SNB-75; NCI/ADR-RES.
Holding throughout (experiment): DTP human tumour cell line panel, 48 h

`Cc1c2ccc3ccccc3c2c[n+]2ccccc12`: the GI50 – broadly, the concentration giving 50% growth inhibition – in the assay on HCC 2998 is 4.92 µM (inactive); in the assay on KM12 it was 1.13 µM (inactive); in the assay on SN12C, 2.94 µM (inactive); in the assay on UACC-62, 13.6 µM (inactive); in the assay with OVCAR-5, 61.9 µM (inactive); in the assay on M14, 15.8 µM (inactive). The GI50 in the assay on SK-MEL-2 was 11.6 µM (inactive); in the assay with SNB-19, 2.64 µM (inactive); in the assay with CCRF-CEM it was 6.59 µM (inactive); with SK-MEL-5 it was 6.79 µM (inactive); with MDA-N, 6.71 µM (inactive); in the assay on ACHN, 56.5 µM (inactive). For the same compound, the GI50 was 2.96 µM (inactive) in the assay on BT-549; 2.37 µM (inactive) with 786-0; 5.89 µM (inactive) with SF-295; 35.7 µM (inactive) in the assay with TK-10; 1.66 µM (inactive) in the assay with U-251; 4.91 µM (inactive) in the assay with NCI-H23. Also, the GI50 with SNB-75 is 6.41 µM (inactive); in the assay on NCI/ADR-RES, 55.2 µM (inactive).
As for `c1ccc2c3ccn4ccc5c6ccccc6[nH]c5c4c-3nc2c1`, the GI50 was 0.453 µM (active) in the assay on HCC 2998; 0.908 µM (active) in the assay with KM12; 0.735 µM (active) in the assay with SN12C; 1.77 µM (inactive) with UACC-62; 1.57 µM (inactive) in the assay with OVCAR-5; 1.85 µM (inactive) with M14. Also, the GI50 with SK-MEL-2 is 1.72 µM (inactive); with SNB-19 it was 1.49 µM (inactive); in the assay on CCRF-CEM, 0.31 µM (active); in the assay on SK-MEL-5, 1.46 µM (inactive); with MDA-N, 1.34 µM (inactive); in the assay on ACHN, 1.43 µM (inactive). Further, the GI50 in the assay on BT-549 was 1.77 µM (inactive); with 786-0, 0.163 µM (active); in the assay on SF-295, 1.46 µM (inactive); in the assay with TK-10 it was 2.62 µM (inactive); with U-251, 0.155 µM (active); in the assay on NCI-H23 it was 1.69 µM (inactive). The GI50 was 1.57 µM (inactive) in the assay on SNB-75 and 1.72 µM (inactive) in the assay on NCI/ADR-RES.
On to `Nc1ccccc1CCCC(=O)O`, for which the GI50 in the assay on HCC 2998, in the assay on KM12, in the assay on SN12C, in the assay on UACC-62, with OVCAR-5 and in the assay with M14 was > 100 µM (inactive) in each case. The GI50 in the assay on SK-MEL-2, with SNB-19, with CCRF-CEM, with SK-MEL-5, in the assay with MDA-N and with ACHN was > 100 µM (inactive) in each case. The GI50 in the assay on BT-549, in the assay on 786-0, with SF-295, in the assay on TK-10, with U-251 and in the assay on NCI-H23 was > 100 µM (inactive) throughout. Besides, the GI50 in the assay on SNB-75 and in the assay on NCI/ADR-RES was > 100 µM (inactive) each time.
With `CC(NC(=O)NC(C)(C)C)NC(=O)C(N)CC(=O)O` (stereo not given), the GI50 in the assay on HCC 2998 is > 10 µM (inactive); in the assay on KM12 it was > 100 µM (inactive); in the assay with SN12C, > 100 µM (inactive); in the assay with UACC-62, 14.4 µM (inactive); in the assay with OVCAR-5, > 100 µM (inactive); with M14, > 100 µM (inactive). Also, the GI50 in the assay on SK-MEL-2, with SNB-19, in the assay on CCRF-CEM, in the assay on SK-MEL-5, in the assay with MDA-N and in the assay with ACHN was > 100 µM (inactive) throughout. The GI50 in the assay on BT-549, in the assay with 786-0, in the assay with SF-295, with TK-10, in the assay on U-251 and in the assay on NCI-H23 was > 100 µM (inactive) throughout. In addition, the GI50 in the assay with SNB-75 and in the assay with NCI/ADR-RES was > 100 µM (inactive) each time.
`CC(=O)OC(CCC1(C)OC1COc1ccc(CCNC(=O)C=C(C)C)cc1)C(C)(C)OC(C)=O` (stereo not given): the GI50 in the assay on HCC 2998 was > 100 µM (inactive); with KM12, 17.8 µM (inactive); in the assay on SN12C it was > 100 µM (inactive); with UACC-62, 18.4 µM (inactive); in the assay with OVCAR-5 it was > 100 µM (inactive); in the assay with M14, 16.3 µM (inactive). The GI50 in the assay on SK-MEL-2 was > 51.9 µM (inactive); in the assay with SNB-19, > 100 µM (inactive); with CCRF-CEM, > 40.6 µM (inactive); in the assay on SK-MEL-5 it was 0.502 µM (active); in the assay on MDA-N it was 13.3 µM (inactive); in the assay on ACHN, 3.61 µM (inactive). In addition, the GI50 in the assay with BT-549 is 0.377 µM (active); in the assay with 786-0, > 100 µM (inactive); in the assay with SF-295, 0.743 µM (active); in the assay on TK-10, > 100 µM (inactive); in the assay on U-251, > 100 µM (inactive); in the assay on NCI-H23 it was 0.647 µM (active). Besides, the GI50 was 44.4 µM (inactive) in the assay with SNB-75 and 10.6 µM (inactive) in the assay on NCI/ADR-RES.
Take `N#Cc1ccccc1NC(=O)C(O)C(O)C(O)C(O)C=O` (stereo not given): the GI50 with HCC 2998, with KM12, in the assay with SN12C, in the assay on UACC-62, with OVCAR-5 and in the assay with M14 was > 100 µM (inactive) each time. Also, the GI50 in the assay on SK-MEL-2, in the assay with SNB-19, with CCRF-CEM, with SK-MEL-5, with MDA-N and with ACHN was > 100 µM (inactive) in each case. Further, the GI50 with BT-549, in the assay on 786-0, with SF-295, in the assay with TK-10, in the assay on U-251 and in the assay with NCI-H23 was > 100 µM (inactive) each time. Also, the GI50 with SNB-75 and in the assay with NCI/ADR-RES was > 100 µM (inactive) each time.
On to `COC1=CC(=O)C2=C(C1=O)[C@H]1CC[C@]3(C)[C@@H](O)CC[C@H]3[C@@H]1CC2`, for which the GI50 in the assay with HCC 2998 was 20.7 µM (inactive); in the assay with KM12 it was 18.4 µM (inactive); in the assay with SN12C, 17 µM (inactive); in the assay on UACC-62, 17.5 µM (inactive); in the assay on OVCAR-5, 19.2 µM (inactive); with M14, 17.5 µM (inactive). For the same compound, the GI50 is 13.9 µM (inactive) in the assay with SK-MEL-2; 24.4 µM (inactive) in the assay on SNB-19; 6.67 µM (inactive) in the assay on CCRF-CEM; 15.5 µM (inactive) in the assay on SK-MEL-5; 17.5 µM (inactive) with MDA-N; 18 µM (inactive) in the assay on ACHN. Further, the GI50 with BT-549 is 17.9 µM (inactive); in the assay on 786-0, 19.5 µM (inactive); with SF-295, 16.7 µM (inactive); in the assay with TK-10, 27.9 µM (inactive); in the assay with U-251, 17 µM (inactive); in the assay with NCI-H23, 23.7 µM (inactive). Moreover, the GI50 in the assay on SNB-75 was 17.9 µM (inactive); with NCI/ADR-RES, 27.5 µM (inactive).
`O=C1OCC/C1=C/c1ccc(/N=N/c2c(O)ccc3ccccc23)cc1`: the GI50 with HCC 2998 was 20.9 µM (inactive); in the assay with KM12, 5.11 µM (inactive); in the assay with SN12C, 18.2 µM (inactive); with UACC-62, 29.5 µM (inactive); with OVCAR-5 it was 22.3 µM (inactive); in the assay with M14 it was 27.5 µM (inactive). Besides, the GI50 in the assay on SK-MEL-2 is 26.7 µM (inactive); in the assay on SNB-19 it was 39.4 µM (inactive); in the assay on CCRF-CEM, 22.9 µM (inactive); in the assay on SK-MEL-5 it was 21.9 µM (inactive); in the assay with MDA-N, 13.8 µM (inactive); with ACHN it was 17.5 µM (inactive). Moreover, the GI50 was 23.2 µM (inactive) with BT-549; 19.1 µM (inactive) in the assay on 786-0; 25.3 µM (inactive) in the assay with SF-295; 19.9 µM (inactive) with TK-10; 18.7 µM (inactive) with U-251; 19.5 µM (inactive) with NCI-H23. Besides, the GI50 in the assay with SNB-75 was 24.8 µM (inactive); in the assay with NCI/ADR-RES, 20.1 µM (inactive).
Turning to `CC(=O)OC1COC(Nc2nc(N)n(C)c(=O)c2N=O)C(OC(C)=O)C1OC(C)=O` (stereo not given), the GI50 in the assay on HCC 2998, in the assay on KM12, in the assay on SN12C, in the assay on UACC-62, in the assay on OVCAR-5 and with M14 was > 10 µM (inactive) throughout. Moreover, the GI50 in the assay on SK-MEL-2, with SNB-19, in the assay on CCRF-CEM, in the assay on SK-MEL-5, with MDA-N and in the assay with ACHN was > 10 µM (inactive) throughout. In addition, the GI50 in the assay with BT-549, with 786-0, in the assay on SF-295, in the assay with TK-10, with U-251 and in the assay on NCI-H23 was > 10 µM (inactive) each time. Also, the GI50 with SNB-75 and in the assay with NCI/ADR-RES was > 10 µM (inactive) each time.
As to `O=C(N/C=C1\C(=O)Oc2ccccc2C1=O)Oc1ccccc1`, the GI50 in the assay on HCC 2998 is 24.8 µM (inactive); in the assay with KM12 it was 35.6 µM (inactive); with SN12C, 18.6 µM (inactive); with UACC-62, 20 µM (inactive); in the assay with OVCAR-5 it was 46.1 µM (inactive); in the assay with M14 it was 19.2 µM (inactive). Moreover, the GI50 with SK-MEL-2 is 14.5 µM (inactive); with SNB-19, 30.6 µM (inactive); with CCRF-CEM, 25 µM (inactive); in the assay with SK-MEL-5, 32.7 µM (inactive); in the assay on MDA-N, 18.1 µM (inactive); with ACHN it was 20.9 µM (inactive). For the same compound, the GI50 with BT-549 is 18.7 µM (inactive); in the assay on 786-0, 23.7 µM (inactive); with SF-295, 30.5 µM (inactive); with TK-10, 22.9 µM (inactive); in the assay on U-251, 23.9 µM (inactive); in the assay on NCI-H23 it was 25.6 µM (inactive). For the same compound, the values for the GI50 in the assay with SNB-75 and with NCI/ADR-RES were 14.3 µM (inactive) and 27.4 µM (inactive), respectively.

Source of the values: ChEMBL document CHEMBL1201862, “PubChem BioAssay data set” (2004).
